Source: US9889150B2, “Agents for the prevention and/or treatment of central nervous system damage” (The University Of Liverpool, priority 2012, dated 2018)
Values joined by “and” are separate entries in the source; they are usually repeats but may differ in a detail not shown here. Equal values may be shown once. “Also recorded” adds a separate entry of the source. Read-outs that look alike come from different tables or passages of the source.

Columns and labels:
Factor Xa (Homo sapiens) [1] = tested on: T1, Factor Xa (Homo sapiens); assay: Anti-factor Xa activity against PIMH standard, Coatest Heparin test kit; assay type: biochemical; conditions: compared with standard heparin (HEP1)
T1 construct: purchased Chromogenix
Description: Anti Factor Xa activity can be measured against a PIMH standard of known activity (Sigma, UK) using a diagnostic grade Coatest Heparin test kit (Chromogenix, MA), adapted to a 96-well plate format, reading A405 (Polarstar plate reader (BMG LabTechnologies, U.K.))^17.
The anti-factor Xa activity was measured against a PIMH standard of known activity using a diagnostic grade Coatest Heparin test kit (Chromogenix, MA), adapted to a 96-well plate format, reading A405.

OECs and astrocytes [2] = assay: OEC:astrocyte confrontation assay (boundary formation); assay type: cell-based, Sprague-Dawley rat; design: key to graded score of boundary formation: mingling (−); partial boundary (+/−); complete boundary (++); conditions: 2 days of treatment; for boundary formation between OECs and astrocytes: modified heparins 10 μg/ml
Description: (§1) All primary neural cultures were generated from Sprague-Dawley rat pups of either sex. As described previously^10,37, purified type 1 astrocytes were prepared by digesting cortices (dissected from 1-day old Sprague Dawley (SD) rats) in 1.33% (w/v) collagenase (Sigma-Aldrich, Gillingham, UK), seeding (˜2×10^7 cells per 75 cm^2 flask) and culturing the cells in poly-L-lysine (PLL, 13.3 μg/ml, Sigma-Aldrich, Gillingham, UK) coated 75 cm2 flasks for 10-12 days. The cells were maintained in DMEM (Invitrogen, Paisley, Scotland) supplemented with 10% (v/v) foetal bovine serum (FBS) (Sigma-Aldrich, Gillingham, UK) and L-glutamine (2 mM, Sigma-Aldrich, Gillingham, UK) (DMEM-FBS). Confluent flasks were shaken on a rotary platform overnight at 37° C. to remove contaminating oligodendrocyte precursor cells. The remaining cells were 85-95% type 1 astrocytes as identified by labelling for glial fibrillary acidic protein (GFAP), an astrocyte cell specific marker.
OECs were isolated from the olfactory bulb of 7 day old SD rat pups and purified using magnetic nanoparticles (STEMCELL Technologies, UK) pre-bound with the p75^NTR antibody (mouse IgG1, Abcam, Cambridge, UK)^30. The cells were grown in low glucose DMEM with 5% (v/v) FBS and 2 mM L-glutamine and further supplemented with DMEM-BS (Bottenstein, 1979), FGF2 (25 ng/ml, Peprotech, London UK), heregulin β-1 (50 ng/ml, R&D Systems, Oxon, UK), forskolin (5×10^-7 M Sigma-Aldrich, Gillingham, UK) and astrocyte conditioned media (ACM) (1:5, fresh serum-free media taken after incubation with a confluent astrocyte monolayer for 48 h)^18, 37.
Confrontation assays were performed as described by Wilby et al. (1999) and Lakatos et al. (2000) with some modifications^10,48. Briefly, 70 μl containing 10,000 OECs or SCs were seeded into one well of a silicon Ibidi culture insert on a PLL-coated glass coverslip (Ibidi GmbH, Munich, Germany). Into the opposing, parallel well, 10,000 astrocytes were seeded. Cells were allowed to attach for 1 h before careful removal of the insert followed by a wash with DMEM-FBS to remove unattached cells. Cultures were maintained in DMEM-FBS and allowed to grow towards each other over a period of 5-7 days, allowing time for cells to make contact and interact^10. In some experiments, modified heparins or blocking antibodies were added to the cultures after the cells had contacted each other. Cultures were then immunolabelled using anti-GFAP for astrocytes (1:500; anti-rabbit (Dako, Ely, UK)) and anti-p75NTR for OECs and SCs (1:1; IgG1; hybridoma supernatant^49. Fluorescent images were captured using an Olympus BX51 fluorescent microscope and Image-Pro software. Using Adobe Photoshop Elements 7.0, a 300 μm line was drawn along the interface between astrocytes and either OECs or SCs. The numbers of OECs or SCs crossing the cell:cell boundary were counted and averaged over five randomly chosen fields. Experiments were repeated at least three times.
Modified heparins were produced semisynthetically by chemical modification (selective desulfation) of heparin as described in Example 1. These structurally distinct, model “HS-mimetic” polysaccharides^50 are useful tools for investigating structure-activity relationships of HS^15-17,31. Heparins were added to confrontation assays at 10 μg/ml at the stage when cells made contact (day 0) and treatment was repeated on day 2. Cultures were fixed and stained as described above on day 3. […]
Purified OECs were seeded at a density of 5000 cells/100 μl into one chamber of an Ibidi culture insert (Ibidi GmbH, Munich, Germany) sealed onto a PLL coated coverslip in a well of a 24-well plate. Cells were cultured in defined OEC medium for 24 h, after which, the medium was replaced with low serum (2% (v/v) FBS) OEC medium containing 1 μM siRNA. siRNA sequences were obtained from Dharmacon/Thermo Scientific (Sulf 1: E-093746-00-0005; Sulf2: E-093673-00-0005; non-targeting: D-001910-01-05; Thermo Fisher Scientific Inc, IL, USA). […]

normal human plasma [3] = assay: APTT assay; assay type: biochemical; conditions: tested up to 100 ug/ml
Description: (§2) APTT and PT assays were performed using a Axis Shield Thrombotrack 1 instrument using normal human plasma, Pathrombin SL reagent and Thromborel S (all from Axis Shield) reagents according to manufacturers instructions.
(§3) For all assays, heparins and polysaccharides were tested up to 100 ug/ml.

SCs and astrocytes = assay: SC:astrocyte confrontation assay (boundary formation); assay type: cell-based, Sprague-Dawley rat; conditions: modified heparins 10 μg/ml, 2 days of treatment
Description: as §1
SCs were purified using a modification of the method described by Brockes and colleagues^20. This modification involved treating the cultures with cytosine arabinoside (AraC, 10^−5 M, Sigma-Aldrich, Gillingham, UK), followed by incubation with anti-Thy1.1 antibody (1:1 supernatant, Sigma-Aldrich, Gillingham, UK) and rabbit complement (1:6, Harlan Laboratories Ltd., UK) to reduce contamination by fibroblasts^10. […]
Confrontation assays were performed as described by Wilby et al. (1999) and Lakatos et al. (2000) with some modifications^10,48. […] Cultures were then immunolabelled using anti-GFAP for astrocytes (1:500; anti-rabbit (Dako, Ely, UK)) and anti-p75NTR for OECs and SCs (1:1; IgG1; hybridoma supernatant^49. Fluorescent images were captured using an Olympus BX51 fluorescent microscope and Image-Pro software. Using Adobe Photoshop Elements 7.0, a 300 μm line was drawn along the interface between astrocytes and either OECs or SCs. The numbers of OECs or SCs crossing the cell:cell boundary were counted and averaged over five randomly chosen fields. Experiments were repeated at least three times. […]

normal human plasma [4] = assay: PT assay; assay type: biochemical; conditions: tested up to 100 ug/ml
Description: as §2, §3

Factor IIa = molecular target: T2, Factor IIa (Homo sapiens, UniProt P00734+P01008); assay: Factor IIa colorimetric substrate assay with antithrombin III; assay type: biochemical; conditions: tested up to 100 ug/ml
T2 construct: Factor IIa (Sigma, 15 mU/ml final concentration); purchased Sigma (Factor IIa); American Diagnostica (antithrombin III)
Description: (§4) Factor Xa and Factor II activity was measured using a colorimetric substrate assay as previously described^17. Briefly, in a 96 well ELISA plate, antithrombin III (American Diagnostica, 30 mIU/ml final concentration) was incubated with heparin or polysaccharide fractions in 0.9% NaCl at 37° C. for 2 minutes. Factor IIa (Sigma, 15 mU/ml final concentration) or Factor Xa (Thermo Scientific, 15 mU/ml final concentration) was added and the samples incubated for a further 1 minute at 37° C. Factor Xa Chromogenic substrate (Sigma, 240 uM final concentration) was added to the samples and incubated for 10 minutes at 37° C. The reaction was stopped with glacial acetic acid (Sigma, 25% final concentration). Colour change of the substrate was measured at 405 nm.
as §3

Factor Xa (Homo sapiens) [5] = molecular target: T1, Factor Xa (Homo sapiens); assay: Factor Xa colorimetric substrate assay with antithrombin III; assay type: biochemical; conditions: tested up to 100 ug/ml
Description: as §4, §3

OECs and astrocytes [6] = conditions: previous work; cited from earlier work
[7] = Celsus Labs lot PH-42800; cited from earlier work

T1 sequence (P01008 33-464): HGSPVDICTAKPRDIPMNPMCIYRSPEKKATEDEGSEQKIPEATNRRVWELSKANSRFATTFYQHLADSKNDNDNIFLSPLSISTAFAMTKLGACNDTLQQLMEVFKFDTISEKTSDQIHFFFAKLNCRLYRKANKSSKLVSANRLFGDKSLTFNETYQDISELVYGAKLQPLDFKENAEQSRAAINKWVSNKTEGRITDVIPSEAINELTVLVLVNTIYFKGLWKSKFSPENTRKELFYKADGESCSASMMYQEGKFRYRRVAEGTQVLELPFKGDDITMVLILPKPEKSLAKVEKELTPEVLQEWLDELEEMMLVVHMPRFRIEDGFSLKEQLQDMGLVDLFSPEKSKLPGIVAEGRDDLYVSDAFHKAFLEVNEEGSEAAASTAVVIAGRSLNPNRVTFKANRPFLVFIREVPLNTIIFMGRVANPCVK

Substance | Anticoagulant activity (anti-Xa activity) (Factor Xa (Homo sapiens) [1]) [%] | IC50 APTT (normal human plasma [3]) | IC50 PT (normal human plasma [4]) | IC50 Factor IIa (Factor IIa) | IC50 Factor Xa (Factor Xa (Homo sapiens) [5]) | also measured
6-O-desulphated heparin [HEP4] | 0.5 | – | – | – | – | boundary formation between OECs and astrocytes (OECs and astrocytes [2]; listed as Hep 4): lower boundary forming activity; boundary formation between OECs and astrocytes (OECs and astrocytes [2]; listed as Hep4): induced boundaries between OECs and astrocytes
6-O-desulphated, 2-O-desulphated heparin [HEP7] | 0.03 | NI (No inhibition of coagulation up to 100 ug/ml of compound) | NI (No inhibition of coagulation up to 100 ug/ml of compound) | NI (No inhibition of coagulation up to 100 ug/ml of compound) | NI (No inhibition of coagulation up to 100 ug/ml of compound) | SCs mingling with astrocytes / boundary formation (SCs and astrocytes; listed as Hep 7): increased number of SCs mingling with astrocytes; also recorded: significantly increased cell mingling; boundary formation between OECs and astrocytes (OECs and astrocytes [2]; listed as Hep 7): do not promote boundary formation; boundary formation between OECs and astrocytes (OECs and astrocytes [2]; listed as Hep7): did not
6-O-desulphated, 2-O-desulphated, N-acetylated heparin [HEP8] | 0.03 | NI (No inhibition of coagulation up to 100 ug/ml of compound) | NI (No inhibition of coagulation up to 100 ug/ml of compound) | NI (No inhibition of coagulation up to 100 ug/ml of compound) | NI (No inhibition of coagulation up to 100 ug/ml of compound) | SCs mingling with astrocytes / boundary formation (SCs and astrocytes; listed as Hep 8): increased number of SCs mingling with astrocytes; also recorded: significantly increased cell mingling; boundary formation between OECs and astrocytes (OECs and astrocytes [2]; listed as Hep 8): do not promote boundary formation; boundary formation between OECs and astrocytes (OECs and astrocytes [2]; listed as Hep8): did not
6-O-desulphated, N-acetylated heparin [HEP6] | 0.03 | NI (No inhibition of coagulation up to 100 ug/ml of compound) | NI (No inhibition of coagulation up to 100 ug/ml of compound) | NI (No inhibition of coagulation up to 100 ug/ml of compound) | NI (No inhibition of coagulation up to 100 ug/ml of compound) | SCs mingling with astrocytes / boundary formation (SCs and astrocytes; listed as Hep 6): increased number of SCs mingling with astrocytes; also recorded: significantly increased cell mingling; boundary formation between OECs and astrocytes (OECs and astrocytes [2]; listed as Hep 6): do not promote boundary formation; boundary formation between OECs and astrocytes (OECs and astrocytes [2]; listed as Hep6): did not
Heparin [reference compound] | – | 1.2 mg/L and 1.2461 mg/L | 41.4 mg/L and 41.4005 mg/L | 1.0 mg/L and 1.0326 mg/L | 0.9 mg/L and 0.9295 mg/L | graded score of boundary formation (OECs and astrocytes [2]; 10 μg/ml): ++; boundary formation between OECs and astrocytes (OECs and astrocytes [6]): induce a boundary between OECs and astrocytes
Ido 2-de-O-sulphated heparin [HEP3] | 0.4 | – | – | – | – | boundary formation between OECs and astrocytes (OECs and astrocytes [2]; listed as Hep 3): lower boundary forming activity; boundary formation between OECs and astrocytes (OECs and astrocytes [2]; listed as Hep3): induced boundaries between OECs and astrocytes
Ido 2-de-O-sulphated, N-acetylated heparin [HEP5] | 0.03 | NI (No inhibition of coagulation up to 100 ug/ml of compound) | NI (No inhibition of coagulation up to 100 ug/ml of compound) | NI (No inhibition of coagulation up to 100 ug/ml of compound) | NI (No inhibition of coagulation up to 100 ug/ml of compound) | boundary formation between OECs and astrocytes (OECs and astrocytes [2]): did not
N-acetyl heparin [HEP2] | 0.03 | – | – | – | – | boundary formation between OECs and astrocytes (OECs and astrocytes [2]; listed as Hep 2): induced significant boundary formation; boundary formation between OECs and astrocytes (OECs and astrocytes [2]; listed as Hep2): induced boundaries between OECs and astrocytes
PIMH [HEP1, reference compound] | 100 | – | – | – | – | boundary formation between OECs and astrocytes (OECs and astrocytes [2]): induced boundaries between OECs and astrocytes; also recorded: induced the strongest boundaries; anticoagulant activity [7]: 201 IU/mg
Per-sulphated heparin [HEP9] | 35.0 | – | – | – | – | boundary formation between OECs and astrocytes (OECs and astrocytes [2]; listed as Hep 9): induced the strongest boundaries; boundary formation between OECs and astrocytes (OECs and astrocytes [2]; listed as Hep9): induced boundaries between OECs and astrocytes
